Read-outs that look alike come from different tables or passages of the source.
Experiments:
CYPA = CYPA (Homo sapiens (Human), UniProt P62937); test: CYPA binding analysis by surface plasmon resonance (SPR)
Text: The compounds of this invention created a tri-complex involving the active RAS protein and CYPA, necessitating the initial formation of a binary complex through the compound's interaction with CYPA. The stability of the drug-target complex, as indicated by its equilibrium dissociation constant (KD), is thought to influence the length of target engagement, which in turn could lead to a prolonged effect in the washout experiments. Therefore, the objective of this study is to evaluate the binding kinetics of the compounds with CYPA to determine the stability of the CYPA-compound binary complex and to evaluate whether this stability correlates with the sustained inhibition of the target.
All SPR experiments were conducted on a Biacore 8K+ instrument (Cytiva). Recombinant biotinylated CYPA protein with a C-terminal AVI tag was purified and immobilized on flow cell 2 of SA chip (Cytiva, BR100531), with the flow cell 1 as the blank reference. The running buffer was HBS-P+ Buffer (Cytiva, BR100827, 0.01 M HEPES pH 7.4,0.15 M NaCl, 0.05% v/v Surfactant P20), and the flow rate was 10 μL/min. The immobilization level was achieved to about 1800 response units (RU). Compounds were 3-fold serially diluted to 1.5-3333 nM using HBS-P+Buffer with a final DMSO concentration of 1.5%, and then loaded to flow through the chip surface at a rate of 30 μL/min with HBS-P+Buffer containing 1.5% DMSO as the running buffer. Experiments were performed at 25° C. The contact time and dissociation time were set to 60 s and 200 s, respectively. After binding and dissociation of each sample, the chip was regenerated using 1 M NaCl with a short contact time of 19 s at a rate of 60 μL/min. The sensorgrams were analyzed using Biacore Insight Evaluation software with 1:1 kinetics binding model to determine the association rate constant (kon), dissociation rate constant (koff) and equilibrium dissociation constant (KD).

SHP-77 xenograft tumor = test: SHP-77 SCLC xenograft efficacy study; assay type: in vivo; details: for mean tumor growth inhibition (TGI): daily 30 mg/kg p.o., 14 days treatment, SHP-77 xenograft
Text: The purpose of the study was to assess the anti-tumor activity in difficult KRAS mutated xenograft tumor model using SHP-77 (small cell lung cancer, SCLC; ATCC CRL-2195) by examining the time-dependent effects on MAPK pathway modulation and tumor suppression post-administration of Example 24 and reference compound A122.
Female CB17-SCID mice at 6-8 weeks old from Vital River Co., LTD. were used for these studies. In order to generate subcutaneous xenograft tumors, each mouse was inoculated at the right flank with tumor cells in 100 μL of PBS and Matrigel matrix in the right hind flank with 1×10^7 cells. Mouse health was monitored daily, and caliper measurements began when tumors were palpable. Tumor volume measurements were determined utilizing the formula 0.5×L×W^2 in which L refers to length and W refers to width of each tumor. When tumors reached an average tumor volume of approximately 100-200 mm^3 for efficacy study and 300-500 mm^3 for single-dose PK/PD study, mice were randomized into treatment groups.
Mice were treated by oral gavage at 10 mg/kg with either vehicle consisting of DMSO: Solutol HS15: water=10:10:80 (% v/v/v) or compounds (Example 24, A122) in vehicle at indicated doses. For efficacy studies, animals were orally administered daily, tumor volumes and body weights were measured 3 times per week. Study day on efficacy plots indicates the day after which compound treatment was initiated. For single-dose PK/PD study, at the indicated time points after a single dose of Example 24 at the indicated dose levels, tumor samples were collected for PD analysis. RNA extraction and analysis of DUSP6 levels by in tumor tissue were performed as described in Example 134.

DLD-1 = test: Cell proliferation, CTG 3D, 7 d; assay type: cell-based; details: Homo sapiens
Method in brief: (§1)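 Luminescent ATP signal (CellTiter-Glo 3D) measured spheroid viability after a 7-day compound exposure. Dosing used nine 3-fold dilutions at 0.2% DMSO in ultra-low-adhesion plates. Inhibition was normalized to max and min controls and fitted for relative IC50.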

Panc 02.03 = test: Cell proliferation, CTG 3D, 7 d; assay type: cell-based; details: Homo sapiens; Panc 02.03, KRAS (G12D)
Method in brief: as §1

KURAMOCHI = test: Cell proliferation, CTG 3D, 7 d; assay type: cell-based; details: Homo sapiens, KRAS (WT ampl)
Method in brief: as §1

NCI-H2291 = test: Cell proliferation, CTG 3D, 7 d; assay type: cell-based; details: Homo sapiens
Method in brief: as §1

Hs-766T = test: Cell proliferation, CTG 3D, 7 d; assay type: cell-based; details: Homo sapiens, Hs766T
Method in brief: as §1

CHL1 = test: Cell proliferation, CTG 3D, 7 d; assay type: cell-based; details: Homo sapiens, CHL-1; CHL1, KRAS (WT ampl)
Method in brief: as §1

TF-1 = test: Cell proliferation, CTG 3D, 7 d; assay type: cell-based; details: Homo sapiens
Method in brief: as §1

MDA-MB-231 = test: Cell proliferation, CTG 3D, 7 d; assay type: cell-based; details: Homo sapiens
Method in brief: as §1

COR-L23 = test: Cell proliferation, CTG 3D, 7 d; assay type: cell-based; details: Homo sapiens; COR-L23, KRAS (G12V)
Method in brief: as §1

Chain of CYPA (P62937 whole entry): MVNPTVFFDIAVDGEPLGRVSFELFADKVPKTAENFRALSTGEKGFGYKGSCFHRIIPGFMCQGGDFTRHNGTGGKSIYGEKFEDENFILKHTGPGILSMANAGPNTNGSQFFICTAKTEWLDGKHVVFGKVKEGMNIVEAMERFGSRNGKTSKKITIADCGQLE

## CO[C@@H](C)c1ncc(N2CCN(C)CC2)cc1-c1c2c3cc(cc4c3n1CCC4)-c1csc(n1)C[C@H](NC(=O)[C@H]1[C@H](C)[C@@H]1C)C(=O)N1CCC[C@H](N1)C(=O)OCC(C)(C)C2 (atropisomer, axis not shown; (M)) [Example 24, (1r,2R,3S)-N-[(7S,13S)-(20M)-20-[2-[(1S)-1-methoxyethyl]-5-(4-methylpiperazin-1-yl)-3-pyridyl]-17,17-dimethyl-8,14-dioxo-15-oxa-4-thia-9,21,30,31-tetrazahexacyclo[23.3.1.1^2,5.1^9,13.0^19,27.0^21,26]hentriaconta-1 (28),2,5 (31), 19,25 (29),26-hexaen-7-yl]-2,3-dimethyl-cyclopropanecarboxamide]
CYPA
  fold lower KD compared to A122: 2.3 fold
  fold lower koff compared to A122: 2.9 fold
CYPA; SPR, 25° C., immobilized CYPA
  Kd: 13 nM
  koff: 0.019 s⁻¹
  kon: 1.4e+06 M⁻¹ s⁻¹
SHP-77 xenograft tumor
  mean tumor growth inhibition (TGI): 70%
SHP-77 xenograft tumor; daily administration at 30 mg/kg, SHP-77 xenograft mice
  tolerability based on body weights: well-tolerated
DLD-1; DLD-1, KRAS (G13D), read-out: IC50
  IC50: 18 nM
Panc 02.03
  IC50: 3.2 nM
KURAMOCHI
  IC50: 100 nM
NCI-H2291; NCI-H2291, KRAS (G12F), read-out: IC50
  IC50: 0.55 nM
Hs-766T; Hs-766T, KRAS (Q61H), read-out: IC50
  IC50: 100 nM
CHL1
  IC50: 8.1 nM
TF-1; TF-1, NRAS (p.Q61P), read-out: IC50
  IC50: 130 nM
MDA-MB-231; MDA-MB-231, KRAS (G13D), read-out: IC50
  IC50: 27 nM
COR-L23
  IC50: 0.53 nM

## CCn1c(-c2cc(N3CCN(C)CC3)cnc2[C@H](C)OC)c2c3cc(ccc31)-c1csc(n1)C[C@H](NC(=O)[C@H]1C[C@@H]1C)C(=O)N1CCC[C@H](N1)C(=O)OCC(C)(C)O2 [Example A122, reference compound]
CYPA; SPR, 25° C., immobilized CYPA
  koff: 0.056 s⁻¹
  kon: 1.9e+06 M⁻¹ s⁻¹
SHP-77 xenograft tumor
  mean tumor growth inhibition (TGI): 43%
DLD-1; DLD-1
  IC50: 20 nM
Panc 02.03
  IC50: 5.2 nM
KURAMOCHI
  IC50: 100 nM
NCI-H2291; NCI-H2291
  IC50: 1 nM
Hs-766T
  IC50: 100 nM
CHL1
  IC50: 9.3 nM
TF-1; TF-1
  IC50: 100 nM
MDA-MB-231; MDA-MB-231
  IC50: 20 nM
COR-L23
  IC50: 0.78 nM

— patent publication US20240417410A1, “TRICYCLIC COMPOUNDS FOR THE TREATMENT OF CANCER” (Hoffmann-La Roche Inc., priority 2023, published 2024)
